# Measured values published in a melting point compilation (Tetko et al.; mined from patent text by program, amines drawn as free bases though some values may be those of a salt).
row,SMILES,melting point [°C]
1,CCOC(=O)c1cc(NCc2ccccc2)c(Oc2cccc(C(F)(F)F)c2)c(S(N)(=O)=O)c1,166 to 168
2,CCCN=C(N)Nc1ccnc(OCCCO)n1,183 to 184
3,COc1cc2cccnc2c(N2CCN([C@H]3CC[C@@H](c4cn(C)c5ccc(C#N)cc54)CC3)CC2)n1,230 to 233
4,CCOC(=O)c1ccc(NC(=O)Nc2c(OC)ccc3c2C(C)(C)COC3(C)C)cc1,147 to 149
5,CCOc1cc(N)c(Cl)cc1C(=O)NCC1CN(CC2CCN(C#N)CC2)CCO1 (centres undefined),197
6,CNC(=O)c1cc2nc(C(F)(F)F)ccc2c(OC)c1NC(=O)c1cc(C(F)(F)F)nn1-c1ncccc1Cl,209 to 211
7,O=C1C=CC(=O)N1c1ccc2c3c(cccc13)-c1ccccc1-2,185 to 186
8,CC(C)(Cl)CC(N)C(=O)NC(C(=O)Nc1ccccc1)C(=O)c1ccccc1 (centres undefined),145 to 147
9,CC1=NN(C)C(=O)C1=Cc1ccc(Cl)cc1Cl,128
10,CNC(=O)C(Cc1ccc(O)cc1)NC(=O)Nc1n[nH]c(=S)s1 (centres undefined),198 to 200
11,CCOC(=O)c1ccc(-c2cnc3c(c2)N(C(=O)c2ccccc2)CCN3)cc1,177 to 178
12,CCOC(=O)Cc1sc(Sc2cc(C(=O)OCC)nc3c(OC)cccc23)nc1C,120 to 121
13,COc1ccc2c(c1OCC#N)CCC=C2,138 to 139
14,COC(=O)c1cccc(C=O)c1O,82 to 84
15,CC(C)(C)C(O)(COc1ccc(Cl)cc1)c1cncnc1 (centres undefined),172 to 174
16,COc1ccc(CS[C@H]2C[C@@H](C(N)=O)N(C)C2)cc1,113 to 114
17,CCCCNC(=S)Nc1cc(Cl)ccc1N1CCOCC1,150 to 152
18,N#Cc1cc(N)c(Cl)cc1C#N,206 to 209
19,CS(=O)(=O)C1(F)Cc2cc(Cl)ccc2C1=O (centres undefined),150
20,Cc1ccc2c(c1)C(=O)c1ccccc1CC2,34 to 35
21,Cc1nc(N2CCN(Cc3ncoc3-c3ccccc3)C2=O)sc1C(=O)NCc1cccnc1,78 to 81
22,CC(=CC(=O)O)C[N+](=O)[O-],85
23,CC1(C)OC(=O)Nc2ccc(-c3ccc(C#N)c(F)c3)cc21,272 to 275
24,CCCc1nn(C)c2c(=O)[nH]c(-c3cc(/C=C/C(=O)N(C)C)ccc3OCC)nc12,219 to 221

row,SMILES,melting point [°C]
1,O=C(O)CC(Cc1ccccc1)NC(=O)C1Cc2ccccc2N1S(=O)(=O)c1ccc(-c2cccc(C(F)(F)F)c2)cc1 (centres undefined),78 to 82
2,COC(=O)C1CC(C#N)(c2ccc(OC)c3c2OC(C)(C)O3)CCC1=O (centres undefined),146 to 147
3,COc1ccc(Cn2cnc3c(-c4ccco4)nc(C(C)C)nc32)cc1,123
4,COc1cc(OC)nc(C2(C#N)OC(=O)c3c(-c4cccs4)ccnc32)n1 (centres undefined),187 to 188
5,CN1C(=O)CC[C@]2(C)c3ccc(-c4cccc(NC(c5ccccc5)c5ccccc5)c4)cc3CC[C@@H]12,109 to 111
6,CN1CCc2ccccc21,88 to 90
7,COc1cc2c(cc1OS(N)(=O)=O)CCN(Cc1cccc(NS(C)(=O)=O)c1)C2,151 to 152
8,CC(C)(C)OC(=O)Nc1ccc(-c2cccc3ccccc23)cc1[N+](=O)[O-],60 to 66
9,CCOC(=O)CN1C(=O)COc2cc([N+](=O)[O-])ccc21,120 to 122
10,COC(=O)C1=Cc2cc(Br)ccc2S(=O)(=O)CC1,162 to 164
11,Cc1oc(-c2ccccc2)nc1COc1cncc(CO)c1,111 to 112
12,CCOC(=O)C(C)(C)Oc1ccc(OCCn2c(=O)sc3cc(C(=NOC)c4cccc(Cl)c4)ccc32)cc1,93 to 98
13,CCCCC(=O)Nc1ccc(C(F)(F)F)c(-n2nc(CCCC)n(Cc3ccc(-c4ccccc4S(=O)(=O)NC(=O)c4ccccc4Cl)cc3F)c2=O)c1,145 to 147
14,Cc1cc(-c2ccc(C(F)(F)F)cc2)nc2c(-c3nc(-c4ccc(S(N)(=O)=O)s4)no3)cnn12,276
15,CC(C)(C)OC(=O)N1CCC(CNc2c([N+](=O)[O-])cnc3cc(-c4ccccc4)ccc23)CC1,153 to 154
16,CC12CCCc3cc(NS(=O)(=O)c4ccc(C(=O)O)cc4)cc(c31)CCC2,215 to 217
17,CC(c1oc2ccccc2c(=O)c1-c1cccc(F)c1)n1ccc2c(Cl)ncnc21 (centres undefined),71 to 75
18,COc1cc[nH]c1C=C1C(=O)Nc2cccc(C#CC(O)c3sccc3OC)c21 (racemic),213 to 216
19,CCOC(=O)c1c(C(=O)c2nc(OC)cc(OC)n2)ccnc1Br,98 to 99
20,CN(C)C(=O)Nc1ccc(Oc2ccnc(Cl)n2)cc1,192
21,O=C(CC1CCCC1)NC[C@H]1CN(c2ccc3c(c2)CCCc2cn[nH]c2-3)C(=O)O1,205 to 208
22,CC1=CC(OC(=O)c2ccc(N)cc2)C(O)C(C)(C)CC1=O (centres undefined),152 to 153
23,COc1c(C)c(=O)oc2cc(-c3ccc(C(C)C)cc3)ccc12,129
24,CNC(=O)[C@@H]1CCN1S(=O)(=O)c1ccc(Cl)c(COc2cccc3c(-n4ccnc4)cc(C)nc23)c1Cl,118

row,SMILES,melting point [°C]
1,CC(C)n1nc(-c2c(NC3CC3)nc(N)nc2-c2ccccc2)ccc1=O,237 to 239
2,Cc1c(=O)n(Cc2ccc(C#N)cc2)c(=O)n2cc(C(=O)NCc3ccc(F)cc3)sc12,> 220
3,Nc1nc2c(s1)CCN(CC=Cc1ccccc1OCc1ccccc1)CC2,103 to 107
4,CC(C)(Sc1cccc(OCc2ccc(-c3ccc([N+](=O)[O-])cc3)o2)c1)C(=O)O,137 to 138
5,Cc1cc(C(=O)N(C2CCCCC2)C2CCCC2)ccc1Cn1cnc2ncccc21,191 to 192
6,CCCCCCCCCCCCc1ccc(NC(C)=O)cc1,100 to 102
7,COC(=O)c1ccc2[nH]c(=O)n(Cc3ccc(OC)cc3)c(=O)c2c1,235 to 237
8,OC(CN1CCNC1=S)c1ccncc1 (centres undefined),204
9,CC(C)(Cc1ccccc1)C(NC(=O)c1ccncc1)Nc1c(Nc2cccnc2)c(=O)c1=O (centres undefined),251 to 254
10,CN1C[C@H]2Cc3ccc(Cl)cc3[C@H](c3ccc(Cl)cc3)[C@H]2C1 (racemic),133 to 135
11,COc1cc(Nc2cc(C(F)(F)F)nc(-c3cc(Cl)nc(Cl)c3)n2)cc(OC)c1,109 to 110
12,NC(=O)c1cc(CO)ccc1[N+](=O)[O-],143 to 145
13,COc1ccc(-c2nc(-c3cccn3CC(=O)OC(C)C)sc2-c2ccc(OC)cc2)cc1,130 to 133
14,COc1ccc2c(c1)C(C)(N1C(=O)c3ccccc3C1=O)C(=O)N2c1ccc(F)cc1 (centres undefined),207 to 208
15,COc1c(/C=C/c2cc(/C=C/c3ccc4cc[nH]c4c3)n[nH]2)cccc1OCc1ccccn1,109 to 114
16,CNCc1nc(C(=O)NC)c2n1-c1ccc(Cl)cc1C(c1ccccc1Cl)=NC2,270 to 273
17,NS(=O)(=O)c1ccc(-c2[nH]c3ccc(Cl)cc3c2-c2cccc(Cl)c2)cc1,249 to 251
18,CC(C)n1nc(-c2sc(N)nc2-c2ccccc2)ccc1=O,> 250
19,O=C(NCc1cccnc1)c1ccc(OCc2ccc3ccccc3n2)cc1C1(c2ccccc2)CC2CCC1C2 (centres undefined),179 to 181
20,CCOC(=O)c1c(Cc2ccccc2)nc2c(C(F)(F)F)cccc2c1O,99
21,C=CCSC1=C(C(=O)OCc2ccc([N+](=O)[O-])cc2)N2C(=O)[C@@H]([C@H](C)O)[C@H]2C1,137 to 139
22,Cc1cc(-c2cnn3c(C(F)(F)F)cc(-c4ccc(Cl)c(C)c4)nc23)ccn1,240
23,CCCCOCCOc1ccc(-c2ccc3c(c2)C=C(C(=O)Nc2ccc(C/C(=N\O)c4nccn4CCC)cc2)CCN3CC(C)C)cc1,166 to 168
24,CC12CC(N3CCC(O)CC3)C(O)CC1CCC1C2CCC2(C)C(O)C(N3CCCC3)CC12 (centres undefined),188 to 190

row,SMILES,melting point [°C]
1,CCC1Cc2cc(OCC(=O)OC)c(Cl)c(Cl)c2C1=O (centres undefined),134 to 137
2,CCCCOC(=O)Nc1nc(C(=NOC2CCCC2)C(=O)OC)ns1,115 to 118
3,CCCCCCCCCCCCCCCCCCOc1cc(NC(C)=O)cc([N+](=O)[O-])c1,103 to 107
4,O=S(=O)(c1ccccc1)c1cc(Cl)c2oc3c(c2c1)CC(O)CC3 (centres undefined),236 to 240
5,c1ccc(CN2c3ccccc3-c3noc4c3C2CCC4)cc1 (centres undefined),162 to 164
6,CC(=O)CCCc1ccc(S(N)(=O)=O)s1,54 to 57
7,CCCCc1nc2c(N)nc3ccccc3c2n1CCCCCCCCNC(=O)Nc1ccccc1,153 to 155
8,CC(C)(C)C(=O)Nc1nc(Nc2cccc(Br)c2)c2c(n1)[nH]c1ccccc12,287 to 288
9,NC(=O)NC(Cc1c[nH]c2ccccc12)C(=O)NCc1cc(C(F)(F)F)cc(C(F)(F)F)c1 (centres undefined),210 to 212
10,O=C(NCc1ccccn1)c1cc(OCC(F)(F)F)ccc1OCC(F)(F)F,100 to 103
11,NS(=O)(=O)c1ccc(N2CC(CO)OC2=O)cc1 (centres undefined),154 to 156
12,CN1CCN(CCn2c3ccccc3c(=O)c3ccccc32)CC1,156 to 157
13,FC(F)(F)c1ccc(-c2cc(C(F)(F)F)n3ncc(-c4nc(-c5cccnc5)no4)c3n2)cc1,199
14,CCOC(C)n1c(Cl)c(Cl)c(C#N)c1-c1ccc(Cl)c(Cl)c1 (centres undefined),124 to 126
15,O=[N+]([O-])c1cc(Cl)ccc1NS(=O)(=O)c1ccc(Cl)cc1,122 to 123
16,CC(C)(C)c1ccc(CCC(O)CC2CCCCC2)cc1NC(=O)NCC1c2ccccc2Oc2ccccc21 (centres undefined),156 to 157
17,CS(=O)(=O)c1ccc(/C(=C\C2CCCCCC2)C(=O)Nc2nccs2)cc1,163 to 165
18,CCCC1=C(C#N)C(c2cccc([N+](=O)[O-])c2Cl)c2c[nH]nc2N1 (centres undefined),234 to 235
19,COc1cc(OC)nc(NC(=O)NS(=O)(=O)c2ccccc2-c2ccccn2)n1,175 to 176
20,CC(=O)OC1c2ccccc2-c2[nH]c(=O)c(=O)[nH]c21 (centres undefined),> 300
21,COc1ccccc1NC(=O)Nc1ccc(C2CCN(C(=O)Nc3ccc(OCCO)cc3Cl)CC2)cc1,166 to 168
22,Nc1cccc(-c2ccc(CCN3CCN(C(=O)COc4ccccc4)CC3)cc2)n1,127 to 130
